Values quoted from earlier work, collected in patent US5349105A, “Alkyl, alkoxy and thioalkoxy substituted diphenyl acetylenes having retinoid like activity” (Allergan, Inc., priority 1993, dated 1994).

System: ornithine decarboxylase (ODC)
Details: literature background

Compound	induction of ODC activity (in words) (TPA as inducer)	inhibition of induction of ODC activity by TPA (in words) (retinoic acid)
CCCCCCCCCCCCCC(=O)O[C@@H]1[C@@H](C)[C@@]2(O)[C@@H](C=C(CO)C[C@]3(O)C(=O)C(C)=C[C@@H]23)[C@@H]2C(C)(C)[C@]12OC(C)=O [12-0-tetradecanoyl-phorbol-13-acetate]	induces ODC activity	–
CC1=C(/C=C/C(C)=C/C=C/C(C)=C/C(=O)O)C(C)(C)CCC1 [Retinoic acid]	–	inhibits this induction of ODC activity by TPA
